Experimental data as given in paper PMC3572853 (ACS medicinal chemistry letters, 2012).

Assays:
[1] = target: PADs 1–4; assay: kinact/KI determination with purified enzyme, all PADs tested; format: biochemical; settings: for kinact/KI: for all of the PADs tested (PADs 1–4)
[2] = maximum tolerable dose; format: in vivo; settings: mice, per os
[3] = tested on: MDA-MB-231 cells; assay: cell viability and cell number in MDA-MB-231 cells; format: cell-based; settings: MDA-MB-231 cells, 100, 200 and 400 µM, 96 h after administration
[4] = tested on: caspase 3 activity; assay: caspase 3 activity in MDA-MB-231 cells; settings: MDA-MB-231 cells, 100, 200 and 400 µM, 96 h
[5] = tested on: Ki-67; assay: Ki-67 levels in MDA-MB-231 cells
[6] = target: T1, PAD1 (Homo sapiens, UniProt Q9ULC6); assay: kinact/KI determination with purified enzyme, PAD1; format: biochemical
T1 sequence (Q9ULC6 1-663): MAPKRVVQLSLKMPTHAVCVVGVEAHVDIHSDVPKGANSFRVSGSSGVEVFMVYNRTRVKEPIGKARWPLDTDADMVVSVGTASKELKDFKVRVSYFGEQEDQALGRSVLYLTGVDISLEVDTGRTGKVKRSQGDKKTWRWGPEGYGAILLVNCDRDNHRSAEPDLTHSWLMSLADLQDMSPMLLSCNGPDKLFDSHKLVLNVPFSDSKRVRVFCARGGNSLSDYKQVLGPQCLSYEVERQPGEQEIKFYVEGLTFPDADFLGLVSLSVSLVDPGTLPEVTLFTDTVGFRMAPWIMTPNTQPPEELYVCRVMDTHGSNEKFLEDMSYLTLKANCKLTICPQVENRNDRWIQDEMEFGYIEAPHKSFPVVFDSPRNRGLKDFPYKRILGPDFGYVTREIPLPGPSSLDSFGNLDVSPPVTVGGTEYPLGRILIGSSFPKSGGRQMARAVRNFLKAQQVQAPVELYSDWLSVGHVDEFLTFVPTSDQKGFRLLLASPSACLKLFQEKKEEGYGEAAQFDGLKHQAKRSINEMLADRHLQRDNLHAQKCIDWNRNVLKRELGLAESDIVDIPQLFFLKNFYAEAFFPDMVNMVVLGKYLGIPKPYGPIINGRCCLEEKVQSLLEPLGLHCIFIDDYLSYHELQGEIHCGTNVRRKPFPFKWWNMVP

[7] = mice, 100 mg/kg daily by i.p. for up to 56 days; cited from earlier work
[8] = pharmacokinetics in mice, IV and IP injection; format: in vivo; settings: 10 mg/kg
[9] = tested on: collagen induced arthritis (CIA) model; settings: cited from earlier work
[10] = tested on: mouse model of ulcerative colitis; settings: cited from earlier work

Row | Structure (SMILES) | kinact/KI [1] [M⁻¹ min⁻¹] | cell number [3] | cell viability [3] | caspase 3 activity [4] | Ki-67 levels [5] | other results
1 | N=C(CCl)NCC[C@@H](NC(=O)c1ccccc1)C(N)=O [D-Cl2-amidine] | < 150 | – | – | – | – | –
2 | N=C(CCl)NCCCC[C@@H](NC(=O)c1ccccc1)C(N)=O [D-Cl4-amidine] | < 150 | – | – | – | – | –
3 | N=C(CCl)NCCC[C@@H](NC(=O)c1ccccc1)C(=O)NCC(=O)O [D-Cl-amidine-Gly] | < 230 | – | – | – | – | –
4 | N=C(CCl)NCCC[C@@H](NC(=O)c1ccccc1)C(=O)O [D-Cl-amidine-OH] | < 230 | – | – | – | – | –
5 | N=C(CCl)NCCC[C@@H](NC(=O)c1ccccc1)C(N)=O [D-Cl-amidine] | – | significantly decreased cell number at a concentration of 400 µM | significantly decreasing cell viability at concentrations of 200 and 400 µM | significant increase in activity at a concentration of 400 µM | no significant effect on Ki-67 levels | body weight change ([2]; varying doses up to 150 mg/kg): maintained healthy weight gains
6 | N=C(CF)NCCC[C@@H](NC(=O)c1ccccc1)C(N)=O [D-F-amidine] | – | – | – | – | – | kinact/KI [6]: 20.3 M⁻¹ s⁻¹
7 | N=C(CF)NCCC[C@@H](NC(=O)c1ccccc1C(=O)O)C(N)=O [D-o-F-amidine] | – | only a small decrease in cell number at a concentration of 400 µM | no effect on cell viability | did not result in an increase in caspase 3 activity | – | body weight change ([2]; varying doses up to 150 mg/kg): maintained healthy weight gains
8 | N=C(CCl)NCCC[C@H](NC(=O)c1ccccc1)C(N)=O [L-Cl-amidine, N-α-Benzoyl-N5-(2-Chloro-1-Iminoethyl)-l-Ornithine Amide] | – | significantly decreased cell number at a concentration of 400 µM | significantly decreasing cell viability at concentrations of 200 and 400 µM | significant increase in activity at a concentration of 400 µM | no significant effect on Ki-67 levels | body weight change ([2]; 100 mg/kg (group 5), 4 days (96 h)): significant weight loss; body weight change ([2]; 150 mg/kg (group 6), 4 days (96 h)): significant weight loss; observable toxicity ([2]; group 6 (150 mg/kg)): notably shaking, anxious, hunching and breathing heavily from 1 to 4 h after treatment; signs of toxicity [7]: no observable signs of toxicity; time to complete degradation ([8]; IP): ≤ 4 h; time to complete degradation ([8]; IV): ≤ 2 h; disease severity [9]: reduces disease severity; disease severity [10]: reduces disease severity
9 | N=C(CCl)NCCCC(NC(=O)c1ccccc1)C(=O)O [L-Cl-amidine-OH] | – | – | – | – | – | PAD inhibition in words ([1]; PADs 1–4): poor PAD inhibitor
10 | CC(=O)N[C@H]1[C@@H](O[C@@H]2O[C@H](CC(O)[C@H]3O[C@@H](n4ccc(=O)[nH]c4=O)[C@H](O)[C@@H]3O)[C@H](O)[C@H](O)[C@H]2NC(=O)/C=C/CC(C)C)O[C@H](CO)[C@@H](N)[C@@H]1O (stereo partly shown) [tunicamycin] | – | – | – | – | a decrease in Ki-67 levels | –
